Measured values as given in the OligoGym collection.
Oligonucleotides are written 5' to 3', each unit as a sugar letter and its base; * is a phosphorothioate linkage, no mark a phosphodiester; rarer units and linkages stand in square brackets, end groups in braces. Plain capitals give the bases only. d = 2'-deoxy (DNA); r = 2'-OH (RNA)

Molecular target: NOG
Assay: reporter assay of Huesken 2005
Details: siRNA
Further: test concentration or dose not given here.

Substance	normalised inhibition (eCFP-eYFP dual reporter) [%]
sense rArCrArUrUrCrUrGrCrCrCrCrGrUrGrCrUrGrUdTdT / antisense rArCrArGrCrArCrGrGrGrGrCrArGrArArUrGrUdCdT	60
sense rArCrCrUrCrArUrCrGrArArCrArCrCrCrArGrAdTdT / antisense rUrCrUrGrGrGrUrGrUrUrCrGrArUrGrArGrGrUdCdC	102

Molecular target: UBE2L6
Assay: reporter assay of Huesken 2005
Details: siRNA

Substance	normalised inhibition (eCFP-eYFP dual reporter) [%]
sense rCrArCrArArCrCrArArGrArUrCrUrArCrCrArCdTdT / antisense rGrUrGrGrUrArGrArUrCrUrUrGrGrUrUrGrUrGdAdA	45.8
sense rCrArCrArGrArArUrCrCrGrGrArGrCrUrGrUrUdTdT / antisense rArArCrArGrCrUrCrCrGrGrArUrUrCrUrGrUrGdTdC	97.8
sense rCrArGrCrArGrUrGrArGrArArCrUrGrGrArArGdTdT / antisense rCrUrUrCrCrArGrUrUrCrUrCrArCrUrGrCrUrGdAdT	74.9
sense rCrArUrCrArGrCrArGrUrGrArGrArArCrUrGrGdTdT / antisense rCrCrArGrUrUrCrUrCrArCrUrGrCrUrGrArUrGdAdT	65.7
sense rCrCrArCrCrCrCrArArCrGrUrGrGrArCrGrArGdTdT / antisense rCrUrCrGrUrCrCrArCrGrUrUrGrGrGrGrUrGrGdTdA	67.6
sense rCrCrArUrArCrCrUrGrCrGrGrArArCrCrUrGrUdTdT / antisense rArCrArGrGrUrUrCrCrGrCrArGrGrUrArUrGrGdGdG	88.3
sense rCrCrCrArUrCrArUrCrArGrCrArGrUrGrArGrAdTdT / antisense rUrCrUrCrArCrUrGrCrUrGrArUrGrArUrGrGrGdCdA	74
sense rCrCrCrArUrGrArUrCrArArArUrUrCrArCrArAdTdT / antisense rUrUrGrUrGrArArUrUrUrGrArUrCrArUrGrGrGdAdG	95.2
sense rCrCrCrUrGrCrGrGrArUrGrGrArCrCrUrCrGrCdTdT / antisense rGrCrGrArGrGrUrCrCrArUrCrCrGrCrArGrGrGdGdC	59.7
sense rCrCrGrArArGrArGrUrUrCrArCrCrCrUrCrCrGdTdT / antisense rCrGrGrArGrGrGrUrGrArArCrUrCrUrUrCrGrGdCdA	62.6
sense rCrCrGrArArUrArUrCrArGrGrGrArGrCrCrCrCdTdT / antisense rGrGrGrGrCrUrCrCrCrUrGrArUrArUrUrCrGrGdTdC	50
sense rCrCrUrArCrCrCrGrArCrCrArArCrCrUrCrCrCdTdT / antisense rGrGrGrArGrGrUrUrGrGrUrCrGrGrGrUrArGrGdAdG	55.6
sense rCrCrUrGrCrGrGrArUrGrGrArCrCrUrCrGrCrUdTdT / antisense rArGrCrGrArGrGrUrCrCrArUrCrCrGrCrArGrGdGdG	81.8
sense rCrCrUrGrUrCrCrArGrCrGrArUrGrArUrGrCrCdTdT / antisense rGrGrCrArUrCrArUrCrGrCrUrGrGrArCrArGrGdTdT	77.6
sense rCrGrArUrGrArUrGrCrCrArArUrGrUrCrCrUrGdTdT / antisense rCrArGrGrArCrArUrUrGrGrCrArUrCrArUrCrGdCdT	97.1
sense rCrGrCrUrCrUrCrCrUrCrCrUrArCrCrCrGrArCdTdT / antisense rGrUrCrGrGrGrUrArGrGrArGrGrArGrArGrCrGdTdG	73.7
sense rCrGrGrArUrGrGrArCrCrUrCrGrCrUrGrArCrCdTdT / antisense rGrGrUrCrArGrCrGrArGrGrUrCrCrArUrCrCrGdCdA	71.6
sense rCrUrCrCrUrArCrCrCrGrArCrCrArArCrCrUrCdTdT / antisense rGrArGrGrUrUrGrGrUrCrGrGrGrUrArGrGrArGdGdA	63.5
sense rCrUrGrArCrArCrArGrArArUrCrCrGrGrArGrCdTdT / antisense rGrCrUrCrCrGrGrArUrUrCrUrGrUrGrUrCrArGdCdA	79.6
sense rCrUrGrCrGrGrArArCrCrUrGrUrCrCrArGrCrGdTdT / antisense rCrGrCrUrGrGrArCrArGrGrUrUrCrCrGrCrArGdGdT	76.1
sense rCrUrGrGrArGrGrCrCrCrUrCrArArUrGrUrGrCdTdT / antisense rGrCrArCrArUrUrGrArGrGrGrCrCrUrCrCrArGdGdA	48.2
sense rCrUrUrCrCrCrGrCrCrGrGrArGrUrArUrCrCrGdTdT / antisense rCrGrGrArUrArCrUrCrCrGrGrCrGrGrGrArArGdCdT	38.1
sense rCrUrUrGrCrArCrCrArArGrArCrUrUrGrCrCrAdTdT / antisense rUrGrGrCrArArGrUrCrUrUrGrGrUrGrCrArArGdGdC	89.6
sense rGrArGrCrCrCrCrUrGrCrGrGrArUrGrGrArCrCdTdT / antisense rGrGrUrCrCrArUrCrCrGrCrArGrGrGrGrCrUrCdCdC	55.9
sense rGrArUrUrUrGrCrCrUrGrCrCrCrArUrCrArUrCdTdT / antisense rGrArUrGrArUrGrGrGrCrArGrGrCrArArArUrCdTdG	71.3

Substance	normalised inhibition (eCFP-eYFP dual reporter) [%]
sense rGrCrGrArUrGrArUrGrCrCrArArUrGrUrCrCrUdTdT / antisense rArGrGrArCrArUrUrGrGrCrArUrCrArUrCrGrCdTdG	107
sense rGrGrArGrCrUrGrUrUrCrArGrArArArGrArArUdTdT / antisense rArUrUrCrUrUrUrCrUrGrArArCrArGrCrUrCrCdGdG	108
sense rGrGrArGrUrArUrCrCrGrUrUrCrArArGrCrCrUdTdT / antisense rArGrGrCrUrUrGrArArCrGrGrArUrArCrUrCrCdGdG	84.6
sense rGrGrArUrGrGrArCrCrUrCrGrCrUrGrArCrCrUdTdT / antisense rArGrGrUrCrArGrCrGrArGrGrUrCrCrArUrCrCdGdC	80.5
sense rGrGrCrArCrGrCrUrCrUrCrCrUrCrCrUrArCrCdTdT / antisense rGrGrUrArGrGrArGrGrArGrArGrCrGrUrGrCrCdAdC	62.5
sense rGrUrCrCrUrGrGrUrGrUrGrGrCrArCrGrCrUrCdTdT / antisense rGrArGrCrGrUrGrCrCrArCrArCrCrArGrGrArCdAdT	74.2
sense rGrUrGrArArUrArGrArCrCrGrArArUrArUrCrAdTdT / antisense rUrGrArUrArUrUrCrGrGrUrCrUrArUrUrCrArCdCdA	89.9
sense rGrUrGrGrCrArCrGrCrUrCrUrCrCrUrCrCrUrAdTdT / antisense rUrArGrGrArGrGrArGrArGrCrGrUrGrCrCrArCdAdC	96.9
sense rGrUrUrCrArCrCrCrUrCrCrGrArUrUrCrGrGrAdTdT / antisense rUrCrCrGrArArUrCrGrGrArGrGrGrUrGrArArCdTdC	61.1
sense rUrArCrCrArCrCrCrCrArArCrGrUrGrGrArCrGdTdT / antisense rCrGrUrCrCrArCrGrUrUrGrGrGrGrUrGrGrUrAdGdA	37.4
sense rUrCrArArGrCrCrUrCrCrCrArUrGrArUrCrArAdTdT / antisense rUrUrGrArUrCrArUrGrGrGrArGrGrCrUrUrGrAdAdC	86.7
sense rUrCrArArUrGrUrGrCrUrGrGrUrGrArArUrArGdTdT / antisense rCrUrArUrUrCrArCrCrArGrCrArCrArUrUrGrAdGdG	69.1
sense rUrCrArUrCrArGrCrArGrUrGrArGrArArCrUrGdTdT / antisense rCrArGrUrUrCrUrCrArCrUrGrCrUrGrArUrGrAdTdG	61.3
sense rUrCrCrUrCrCrUrArCrCrCrGrArCrCrArArCrCdTdT / antisense rGrGrUrUrGrGrUrCrGrGrGrUrArGrGrArGrGrAdGdA	49.5
sense rUrCrCrUrGrGrArGrGrCrCrCrUrCrArArUrGrUdTdT / antisense rArCrArUrUrGrArGrGrGrCrCrUrCrCrArGrGrAdCdT	74.2
sense rUrCrUrArCrCrArCrCrCrCrArArCrGrUrGrGrAdTdT / antisense rUrCrCrArCrGrUrUrGrGrGrGrUrGrGrUrArGrAdTdC	53
sense rUrCrUrCrCrUrCrCrUrArCrCrCrGrArCrCrArAdTdT / antisense rUrUrGrGrUrCrGrGrGrUrArGrGrArGrGrArGrAdGdC	79.9
sense rUrGrArCrArCrArGrArArUrCrCrGrGrArGrCrUdTdT / antisense rArGrCrUrCrCrGrGrArUrUrCrUrGrUrGrUrCrAdGdC	54.8
sense rUrGrCrCrGrArArGrArGrUrUrCrArCrCrCrUrCdTdT / antisense rGrArGrGrGrUrGrArArCrUrCrUrUrCrGrGrCrAdTdT	59.9
sense rUrGrGrArArGrCrCrUrUrGrCrArCrCrArArGrAdTdT / antisense rUrCrUrUrGrGrUrGrCrArArGrGrCrUrUrCrCrAdGdT	77.7
sense rUrGrGrUrGrUrGrGrCrArCrGrCrUrCrUrCrCrUdTdT / antisense rArGrGrArGrArGrCrGrUrGrCrCrArCrArCrCrAdGdG	89.5
sense rUrGrUrGrCrUrGrGrUrGrArArUrArGrArCrCrGdTdT / antisense rCrGrGrUrCrUrArUrUrCrArCrCrArGrCrArCrAdTdT	59
sense rUrUrCrArArGrCrCrUrCrCrCrArUrGrArUrCrAdTdT / antisense rUrGrArUrCrArUrGrGrGrArGrGrCrUrUrGrArAdCdG	71.2
sense rUrUrCrArGrArArArGrArArUrGrCrCrGrArArGdTdT / antisense rCrUrUrCrGrGrCrArUrUrCrUrUrUrCrUrGrArAdCdA	57.7
sense rUrUrCrCrCrGrCrCrGrGrArGrUrArUrCrCrGrUdTdT / antisense rArCrGrGrArUrArCrUrCrCrGrGrCrGrGrGrArAdGdC	43
